US20160361329A1, “COMPOUNDS FOR TREATMENT OF COMPLEMENT MEDIATED DISORDERS” (Achillion Pharmaceuticals, Inc., priority 2014, published 2016)
pIC50: −log10 of the molar value.

biological target: T1, Human factor D (Homo sapiens, UniProt P00746); experiment: Human Factor D Assay; format: biochemical; details: Human factor D 80 nM, substrate Z-L-Lys-SBzl and DTNB, pH 7.5
T1 construct: purified from human serum; purchased Complement Technology, Inc; host or cells: human serum
Method: Other standard factor D inhibition assays are also available.
Human factor D (purified from human serum, Complement Technology, Inc.) at 80 nM final concentration is incubated with test compound at various concentrations for 5 minutes at room temperature in 50 mM Tris, 1M NaCl, pH 7.5. A synthetic substrate Z-L-Lys-SBzl and DTNB (Ellman's reagent) are added to final concentrations of 100 μM each. The increase in color is recorded at OD405 nm in a microplate in kinetic mode over 30 minutes with 30 second time points in a spectrofluorimeter. IC50 values are calculated by non-linear regression from the percentage of inhibition of complement factor D activity as a function of test compound concentration.

T1 sequence (P00746 26-253): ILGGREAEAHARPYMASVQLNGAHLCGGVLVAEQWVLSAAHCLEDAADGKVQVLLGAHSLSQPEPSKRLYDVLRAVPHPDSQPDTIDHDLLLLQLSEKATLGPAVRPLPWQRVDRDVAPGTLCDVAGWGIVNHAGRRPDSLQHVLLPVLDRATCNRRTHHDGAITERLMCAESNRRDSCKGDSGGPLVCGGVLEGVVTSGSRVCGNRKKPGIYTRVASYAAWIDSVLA

Row | pIC50 | SMILES
1 | 5.00 to 6.00 | NC(=O)n1cc(NC(=O)N2c3ccccc3C[C@H]2C(=O)NCc2cccc(Cl)c2F)c2ccccc21 [Compound 2, (S)-N1-(1-carbamoyl-1H-indol-3-yl)-N2-(3-chloro-2-fluorobenzyl)indoline-1,2-dicarboxamide]
2 | 5.00 to 6.00 | NC(=O)n1cc(NC(=O)N2C[C@H](F)C[C@H]2c2ncc(-c3cccc(Cl)c3)[nH]2)c2ccccc21 [Compound 10, 3-((2S,4R)-2-(5-(3-chlorophenyl)-1H-imidazol-2-yl)-4-fluoropyrrolidine-1-carboxamido)-1H-indole-1-carboxamide]
3 | 5.00 to 6.00 | NC(=O)n1cc(NC(=O)N2C[C@H](F)C[C@H]2c2ncc(-c3cccc(Br)n3)[nH]2)c2ccccc21 [Compound 12, 3-((2S,4R)-2-(5-(6-bromopyridin-2-yl)-1H-imidazol-2-yl)-4-fluoropyrrolidine-1-carboxamido)-1H-indole-1-carboxamide]
4 | 5.00 to 6.00 | NC(=O)n1cc(NC(=O)N2C[C@H](F)C[C@H]2c2nc3cc(Cl)ccc3[nH]2)c2ccccc21 [Compound 14, 3-((2S,4R)-2-(5-chloro-1H-benzo[d]imidazol-2-yl)-4-fluoropyrrolidine-1-carboxamido)-1H-indole-1-carboxamide]
5 | 5.00 to 6.00 | NC(=O)n1cc(NC(=O)[C@@H]2CCC[C@H]2C(=O)NCc2cccc(Cl)c2F)c2ccccc21 [Compound 23, (1R,2R)-N1-(1-carbamoyl-1H-indol-3-yl)-N2-(3-chloro-2-fluorobenzyl)cyclopentane-1,2-dicarboxamide]
6 | 5.00 to 6.00 | CC(=NC#N)c1cn(CC(=O)N2C[C@H](F)C[C@H]2C(=O)NCc2cccc(Cl)c2F)c2ccccc12 [Compound 32, (2S,4R)-N-(3-chloro-2-fluorobenzyl)-1-(2-(3-(1-(cyanoimino)ethyl)-1H-indol-1-yl)acetyl)-4-fluoropyrrolidine-2-carboxamide]
7 | 5.00 to 6.00 | O=C(NCc1cccc(Cl)c1F)[C@@H]1C[C@@H](F)CN1C(=O)CC1=Nc2ccccc2S(=O)(=O)N1 [Compound 49, (2S,4R)-N-(3-chloro-2-fluorobenzyl)-1-(2-(1,1-dioxido-2H-benzo[e][1,2,4]thiadiazin-3-yl)acetyl)-4-fluoropyrrolidine-2-carboxamide]
8 | 5.00 to 6.00 | CC(=O)c1ccc(CC(=O)N2C[C@H](F)C[C@H]2C(=O)NCc2cccc(Cl)c2F)c2ccccc12 [Compound 58, (2S,4R)-1-(2-(4-acetylnaphthalen-1-yl)acetyl)-N-(3-chloro-2-fluorobenzyl)-4-fluoropyrrolidine-2-carboxamide]
9 | 5.00 to 6.00 | CS(=O)(=O)N1CCc2c(n(CC(=O)N3C[C@H](F)C[C@H]3C(=O)NCc3cccc(Cl)c3F)c3ccccc23)C1 [Compound 69, (2S,4R)-N-(3-chloro-2-fluorobenzyl)-4-fluoro-1-(2-(2-(methylsulfonyl)-3,4-dihydro-1H-pyrido[3,4-b]indol-9(2H)-yl)acetyl)pyrrolidine-2-carboxamide]
10 | 5.00 to 6.00 | NC(c1cn(CC(=O)N2C[C@H](F)C[C@H]2C(=O)NCc2cccc(Cl)c2F)c2ccccc12)C(F)(F)F (stereo partly drawn) [Compound 78, (2S,4R)-1-(2-(3-(1-amino-2,2,2-trifluoroethyl)-1H-indol-1-yl)acetyl)-N-(3-chloro-2-fluorobenzyl)-4-fluoropyrrolidine-2-carboxamide]
11 | > 6.00 | [2H]C([2H])(NC(=O)[C@@H]1C[C@H]2C[C@H]2N1C(=O)Cn1nc(C(N)=O)c2ccncc21)c1cccc(Cl)c1F [Compound 127, (1R,3S,5R)-2-(2-(3-carbamoyl-1H-pyrazolo[3,4-c]pyridin-1-yl)acetyl)-2-azabicyclo[3.1.0]hexane-3-carboxammide, N-(3-chloro-2-fluorophenylmethyl-d2)]
12 | > 6.00 | [2H]C([2H])(NC(=O)[C@@H]1C[C@@H](F)CN1C(=O)Cn1nc(C(N)=O)c2ccncc21)c1cccc(Cl)c1F [Compound 128, (2S,4R)-1-(2-(3-carbamoyl-1H-pyrazolo[3,4-c]pyridin-1-yl)acetyl)-4-fluoropyrrolidine-2-carboxamide, N-(3-chloro-2-fluorophenylmethyl-d2)]

Row | SMILES | pIC50
13 | CC(=O)c1cn(CC(=O)N2C[C@H](F)C[C@H]2c2ncc(-c3cccc(Br)n3)[nH]2)c2ccccc12 [Compound 13, 2-(3-acetyl-1H-indol-1-yl)-1-((2S,4R)-2-(5-(6-bromopyridin-2-yl)-1H-imidazol-2-yl)-4-fluoropyrrolidin-1-yl)ethanone] | 5.00 to 6.00
14 | CC(=O)c1cn(CC(=O)N2C[C@H](F)C[C@H]2c2ncc(-c3cccc(Br)n3)[nH]2)c2cc(O)ccc12 [Compound 40, 2-(3-acetyl-6-hydroxy-1H-indol-1-yl)-1-((2S,4R)-2-(5-(6-bromopyridin-2-yl)-1H-imidazol-2-yl)-4-fluoropyrrolidin-1-yl)ethanone] | 5.00 to 6.00
15 | CC(=O)c1cn(CC(=O)N2CC3(C[C@H]2C(=O)Nc2cccc(OC(F)(F)F)c2F)OCCO3)c2cc(O)ccc12 [Compound 41, (S)-7-(2-(3-acetyl-6-hydroxy-1H-indol-1-yl)acetyl)-N-(2-fluoro-3-(trifluoromethoxy)phenyl)-1,4-dioxa-7-azaspiro[4.4]nonane-8-carboxamide] | 5.00 to 6.00
16 | CC(=O)c1cn(CC(=O)N2C[C@H](F)C[C@H]2C(=O)NC2CCc3ccccc32)c2ccccc12 (some centres unmarked) [Compound 42] | 5.00 to 6.00
17 | CC(=O)c1cn(CC(=O)N2C[C@H](F)C[C@H]2C(=O)NC2CCc3c(Cl)cccc32)c2ccccc12 (stereo partly drawn) [Compound 44, (2S,4R)-1-(2-(3-acetyl-1H-indol-1-yl)acetyl)-N-(4-chloro-2,3-dihydro-1H-inden-1-yl)-4-fluoropyrrolidine-2-carboxamide] | 5.00 to 6.00
18 | CCOP(=O)(OCC)c1nn(CC(=O)N2C[C@H](F)C[C@H]2C(=O)NCc2cccc(Cl)c2F)c2cnccc12 [Compound 53, diethyl 1-(2-((2S,4R)-2-(3-chloro-2-fluorobenzylcarbamoyl)-4-fluoropyrrolidin-1-yl)-2-oxoethyl)-1H-pyrazolo[3,4-c]pyridin-3-ylphosphonate] | 5.00 to 6.00
19 | CCOP(=O)(OCC)c1cc(Cl)cc(NC(=O)[C@@H]2C[C@@H](F)CN2C(=O)Cn2cc(C(C)=O)c3ccccc32)c1 [Compound 59, diethyl 3-((2S,4R)-1-(2-(3-acetyl-1H-indol-1-yl)acetyl)-4-fluoropyrrolidine-2-carboxamido)-5-chlorophenylphosphonate] | 5.00 to 6.00
20 | CCOP(=O)(O)c1nn(CC(=O)N2C[C@H](F)C[C@H]2C(=O)NCc2cccc(Cl)c2F)c2cnccc12 [Compound 60, ethyl hydrogen 1-(2-((2S,4R)-2-(3-chloro-2-fluorobenzylcarbamoyl)-4-fluoropyrrolidin-1-yl)-2-oxoethyl)-1H-pyrazolo[3,4-c]pyridin-3-ylphosphonate] | 5.00 to 6.00
21 | C=C[C@@H]1C[C@]1(NC(=O)[C@@H]1C[C@@H](F)CN1C(=O)Cn1cc(C(C)=O)c2ccc(O)cc21)C(=O)NS(=O)(=O)C1CC1 [Compound 64, (2S,4R)-1-(2-(3-acetyl-6-hydroxy-1H-indol-1-yl)acetyl)-N-((1R,2S)-1-(cyclopropylsulfonyl-carbamoyl)-2-vinylcyclopropyl)-4-fluoropyrrolidine-2-carboxamide] | 5.00 to 6.00
22 | CC(=O)c1cn(CC(=O)N2[C@@H]3CCCC[C@@H]3C[C@H]2C(=O)NCc2cccc(Cl)c2F)c2cc(O)ccc12 [Compound 66, (2S,3aR,7aR)-1-(2-(3-acetyl-6-hydroxy-1H-indol-1-yl)acetyl)-N-(3-chloro-2-fluorobenzyl)octahydro-1H-indole-2-carboxamide] | 5.00 to 6.00
23 | COc1cccc2c1c(C(C)=O)cn2CC(=O)N1C[C@H](F)C[C@H]1C(=O)Nc1cccc(-c2ccccc2Cl)c1F [Compound 96, (2S,4R)-1-(2-(3-acetyl-4-methoxy-1H-indol-1-yl)acetyl)-N-(2′-chloro-2-fluorobiphenyl-3-yl)-4-fluoropyrrolidine-2-carboxamide] | 5.00 to 6.00
